Assay results as given in patent publication US5208344A, “Naphthalenepropionic acid derivatives as anti-inflammatory/antiallergic agents” (American Home Products Corporation, priority 1991, dated 1993).
Read-outs that look alike come from different tables or passages of the source.

Columns and labels:
[1] = system: inflammatory mediator release; experiment: reverse passive Arthus pleurisy assay, inflammatory mediator release; assay type: in vivo, rat; conditions: rat; for ED50: Rattus norvegicus, po
Procedure: (§1) The compounds of the invention are further tested in the reverse passive Arthus pleurisy assay to evaluate their effectiveness in inflammatory mediator release and/or the fluid and cellular phases of an inflammatory response.
A reverse passive Arthus reaction is induced in the pleural cavity of male Lewis rats (150-200 g; fasted overnight prior to use) by the intravenous administration of bovine serum albumin (BSA; 4 mg/0.2 ml) followed 30 minutes later by the injection of rabbit anti-BSA (1 mg/0.2 ml; lyophilized IgG fraction; Organon Teknika, West Chester, PA) into the right pleural space under halothane anesthesia. […] Animals are sacrificed at either the time of peak eicosanoid production (i.e. 5 minutes after anti-BSA for immunoreactive TxB2, 10 minutes for immunoreactive LTB4, 20 minutes for immunoreactive LTC4) or at the time of peak neutrophil infiltration (4 hours after anti-BSA) by CO2 inhalation. The pleural cavity is then exposed, the fluid exudate removed by gentle vacuum aspiration and the volume of exudate is recorded. For the determination of cellular infiltration, the pleural cavity is rinsed with 3 ml of 0.1% EDTA in sterile saline, and the recovered wash is pooled with the exudate. Cell number is determined on a model ZBI Coulter counter. For determination of eicosanoid production, undiluted pleural exudate is microfuged and the supernatant is extracted with ethanol (8-10 times volume). Extracts are either stored at -20° C., or are evaporated to dryness under a stream of N2 and reconstituted in radioimmunoassay (RIA) buffer.
Eicosanoids are quantitated by RIA according to the procedure specified by the RIA kit manufacturer (Advanced Magnetics, Cambridge, MA). Briefly, 100 μl of ^3 H-labeled eicosanoid and 100 μl of specific antibody are sequentially added to 100 μl of extracted pleural exudate in BGG-phosphate buffer which contains 0.01 M phosphate, 0.1% bovine gamma globulin and 0.1% sodium azide at pH 7.0. Antibody-bound eicosanoid is separated form unbound eicosanoid by the addition of 750 μl of dextran (0.4%)-coated charcoal (0.4% Norit A) containing 0.1% sodium azide. The mixture is centrifuged at 2000 RPM at 5° C. for 15 minutes to pellet the charcoal and adsorbed unbound eicosanoid. Antibody-bound labeled eicosanoid is quantitated by counting in a liquid scintillation counter, and is correlated to concentration by a standard curve.
(§2) Inflammatory cells are expressed as 10^6 cells/ml, pleural exudate is expressed as ml of fluid, and the amount of eicosanoids in the pleural cavity is expressed as ng/ml of exudate. Mean±S.E.M. is determined for each group. Percent inhibition (% I) of cell number, exudate volume and eicosanoid production is calculated for vehicle-treated control groups, and the responses in drug-treated rats are then expressed as the mean $ I of control.

pleural inflammation = experiment: reverse passive Arthus pleurisy assay, pleural inflammation; assay type: in vivo; conditions: rat; for ED30: po, 4 h; for ED30 / ED30 Fluid Exudation: p.o.
Procedure: as §1
A reverse passive Arthus reaction is induced in the pleural cavity of male Lewis rats (150-200 g; fasted overnight prior to use) by the intravenous administration of bovine serum albumin (BSA; 4 mg/0.2 ml) followed 30 minutes later by the injection of rabbit anti-BSA (1 mg/0.2 ml; lyophilized IgG fraction; Organon Teknika, West Chester, PA) into the right pleural space under halothane anesthesia. Drugs or vehicle (0.5% Tween-80) control are administered orally in a volume of 1 ml/100 g body weight at 1 hour prior to the anti-BSA. Animals are sacrificed at either the time of peak eicosanoid production (i.e. 5 minutes after anti-BSA for immunoreactive TxB2, 10 minutes for immunoreactive LTB4, 20 minutes for immunoreactive LTC4) or at the time of peak neutrophil infiltration (4 hours after anti-BSA) by CO2 inhalation. The pleural cavity is then exposed, the fluid exudate removed by gentle vacuum aspiration and the volume of exudate is recorded. For the determination of cellular infiltration, the pleural cavity is rinsed with 3 ml of 0.1% EDTA in sterile saline, and the recovered wash is pooled with the exudate. Cell number is determined on a model ZBI Coulter counter. For determination of eicosanoid production, undiluted pleural exudate is microfuged and the supernatant is extracted with ethanol (8-10 times volume). Extracts are either stored at -20° C., or are evaporated to dryness under a stream of N2 and reconstituted in radioimmunoassay (RIA) buffer.
as §2

LTD4 = target: T1, LTD4 (Cavia porcellus, UniProt Q2NNR5); experiment: LTD4 antagonist activity in isolated guinea pig trachea; assay type: cell-based; conditions: reference leukotriene antagonists
T1 construct: isolated guinea pig trachea; from tissue; host or cells: guinea pig tracheal rings
T1 sequence (Q2NNR5 1-340): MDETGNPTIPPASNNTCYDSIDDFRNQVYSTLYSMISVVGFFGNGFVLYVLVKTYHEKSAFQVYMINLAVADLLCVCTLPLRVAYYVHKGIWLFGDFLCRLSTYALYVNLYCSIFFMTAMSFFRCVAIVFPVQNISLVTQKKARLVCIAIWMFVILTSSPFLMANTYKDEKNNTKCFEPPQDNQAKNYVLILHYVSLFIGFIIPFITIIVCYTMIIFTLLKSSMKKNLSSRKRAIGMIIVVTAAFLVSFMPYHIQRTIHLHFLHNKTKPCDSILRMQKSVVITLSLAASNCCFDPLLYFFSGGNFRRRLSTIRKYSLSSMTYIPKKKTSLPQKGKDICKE
Procedure: The LTD4 antagonist activity of the compounds of the invention is assessed in the in vitro isolated guinea pig trachea assay. Male Hartley guinea pigs (350-400 g) are euthanized by a blow to the head, the neck is opened and the trachea removed. The trachea is maintained in aerated physiological salt solution, cleared of connective tissue and fat and cut into rings approximately 2 mm in width (usually containing two cartilaginous segments per ring). Two pieces of silk suture are then passed through the lumen of the tracheal ring and are tied around the cartilage, one on each side of the trachealis muscle. The tracheal ring is suspended between a glass hook and a force displacement transducer in a 10 ml organ bath for measurement of isometric tension. Tissues are maintained at 37° C. in aerated ([…] /5% CO2) physiological salt solution of the following composition: […] The tracheal rings are maintained at 2 g resting tension and equilibrated for 45 minutes (with frequence washing and readjustment of resting tension). The tracheal rings are first contracted by the addition of carbachol (3×10^-6 M), to determine tissue responsiveness and establish a reference contraction. On attainment of a stable level of contraction (approximately 30 minutes), the tissues are washed several times until baseline tension has been restored and the re-equilibrated for 30 minutes. The tissues are then incubated for 45 minutes with a test antagonist (either 1×10^-6 M or 1×10^-5 M) or 10 μl of an appropriate solvent control (control, non-treated). One tissue in each group serves as the control. Twenty minutes prior to the construction of the LTD4 cumulative concentration-response curve, L-[…]×10^-2 M final bath concentration) is added to inhibit bioconversion of LTD4 to LTE4. Only one LTD4 concentration-response curve is constructed in each tissue. All responses to LTD4 in an individual tissue are measured as a percentage of the reference contraction of that tissue to carbachol. LTD4 antagonist activity is determined by comparison of the concentration response curves of LTD4 in the presence and absence of antagonist. Assessment of the relative rightward shift of the antagonist treated curve relative to the solvent (control) treated tissue is calculated as a concentration ratio (Eq. A) and used in subsequent calculations to derive an antagonist pKB value (Eqs. B and C). In the vent that the maximum response to LTD4 is depressed, the EC50 for that particular curve is determined, an "apparent" pKB reported, and the compound reported as "not-competitive." [formula] If a compound is found to be active and/or depress the maximal response to LTD4, then a range of concentrations of the test compound should be used generating multiple concentration ratios which would than be used to perform a Schild analysis, and determination of a pA2 value where appropriate.

5-lipoxygenase = target: T2, 5-lipoxygenase (Rattus norvegicus, UniProt P12527); experiment: inhibition of 5-HETE synthesis by rat glycogen elicited polymorphonuclear leukocytes; assay type: cell-based; conditions: read-out: % Inhibition of 5-LO (as 5-HETE)
T2 construct: Peritoneal PMN are obtained from female Wistar rats (150-250 g); endogenous in cells; host or cells: rat glycogen-elicited peritoneal polymorphonuclear leukocytes, intact
T2 sequence (P12527 1-673): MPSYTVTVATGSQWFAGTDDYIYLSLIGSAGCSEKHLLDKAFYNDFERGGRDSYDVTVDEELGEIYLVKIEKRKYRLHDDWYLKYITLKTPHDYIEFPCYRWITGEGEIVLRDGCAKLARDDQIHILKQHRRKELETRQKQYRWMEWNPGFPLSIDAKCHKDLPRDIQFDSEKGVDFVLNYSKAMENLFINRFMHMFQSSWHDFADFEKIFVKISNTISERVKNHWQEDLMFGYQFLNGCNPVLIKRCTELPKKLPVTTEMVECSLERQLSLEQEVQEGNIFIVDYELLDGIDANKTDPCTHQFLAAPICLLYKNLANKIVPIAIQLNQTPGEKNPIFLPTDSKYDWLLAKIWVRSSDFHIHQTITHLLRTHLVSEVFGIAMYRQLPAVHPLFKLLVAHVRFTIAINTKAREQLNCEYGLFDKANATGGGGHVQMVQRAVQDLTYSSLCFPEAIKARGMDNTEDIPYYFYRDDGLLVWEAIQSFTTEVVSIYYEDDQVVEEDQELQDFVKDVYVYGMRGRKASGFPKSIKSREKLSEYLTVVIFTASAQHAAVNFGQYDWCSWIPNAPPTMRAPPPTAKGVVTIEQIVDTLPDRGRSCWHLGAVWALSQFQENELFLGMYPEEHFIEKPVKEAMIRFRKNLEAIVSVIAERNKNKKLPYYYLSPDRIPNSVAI
Procedure: The assay of this Example measures the ability of the compounds of the invention to inhibit the synthesis of 5-HETE by rat glycogen elicited polymorphonuclear leukocytes.
(§3) Peritoneal PMN are obtained from female Wistar rats (150-250 g) that received an i.p. injection of 6% glycogen (10 ml). After 24 hours, rats are killed by CO2 asphysiation and peritoneal cells are harvested by peritoneal lavage using Ca^++ and MG^++ free Hanks' balanced salt solution (HBSS). The peritoneal exudate is centrifuged at 400 g for 10 minutes. After centrifugation, the lavaged fluid is removed and the cell pellet is resuspended in HBSS containing Ca^++ and MG^++ and 10 mM L-cysteine at a concentration of 2×10^7 cells/ml. To 1 ml portions of cell suspension, test drugs or vehicle are added and incubated at 37° C. for 10 minutes. Following this preincubation, the calcium ionophore (10 μM), a23187, is added together with 0.5 μM [14 C] arachidonic acid and further incubated for 10 minutes. The reaction is stopped by the addition of ice cold water (3 ml) and acidifying to pH 3.5. Lipoxygenase products are then extracted twice into diethyl ether. The pooled ether extracts are evaporated to dryness under nitrogen and the residue is redissolved in a small volume of methanol and spotted on aluminum backed pre-coated thin layer chromatographic plates. The samples are then cochromatographed with authentic reference 5-HETE in the solvent system - hexane: ether: acetic acid (50:50:3). After chromatography, the areas associated with 5-HETE standard are identified by autoradiography, cut out and quantitated by liquid scintillation.

cyclooxygenase = experiment: inhibition of synthesis of cyclooxygenase products TxB2 and PGE2 (rat polymorphonuclear leukocytes); assay type: cell-based; conditions: 10 μM; rat PMN; negative = potentiation of PGE2 synthesis
Procedure: as §3
However, in order to determine cyclooxygenase activity, the samples are cochromatographed with authentic reference TxB2 and PGE2 in the solvent system ethyl acetate: formic acid (80:1) and the upper phase of ethyl acetate: isooctane: acetic acid: water (110:50:20:100). After chromatography, the areas associated with the TxB2 and PGE2 standards are identified by autoradiography, cut out and quantitated by liquid scintillation techniques.

[2] = 5 min, p.o., 1 hour prior to anti-BSA, read-out: ED50 TxB2
[3] = 10 min, p.o., 1 hour prior to anti-BSA, read-out: ED50 LTB4

Question: How did the ED50 [1, 2] turn out when `NC1=NN(c2cccc(C(F)(F)F)c2)CC1` [BW755C] was run?
Answer: The ED50 was 18 mg/kg.

Question: And the ED50 [1, 3]?
Answer: Its ED50 is 23 mg/kg.

Question: And the ED30 (pleural inflammation; read-out: ED30 Cellular Influx)?
Answer: The ED30 was 28 mg/kg.

Question: And the ED30 (pleural inflammation; read-out: ED30 Fluid Exudation)?
Answer: Its ED30 is 14 mg/kg.

Question: `C[C@@H]1C[C@H]2[C@@H]3CCC4=CC(=O)C=C[C@]4(C)[C@@]3(F)[C@@H](O)C[C@]2(C)[C@@]1(O)C(=O)CO` [Dexamethasone] was tested. Which “ED30 Fluid Exudation” value (pleural inflammation) did it give?
Answer: The value was 0.05 mg/kg.

Question: What about the ED30 (pleural inflammation; read-out: ED30 Cellular Influx) of the same compound?
Answer: The ED30 was 0.13 mg/kg.

Question: Which pKB (LTD4) does the source give for `CCCc1c(OCCCCc2nn[nH]n2)ccc(C(C)=O)c1O` [Ly-171,883, reference compound] here?
Answer: Its pKB is 7.44 ± 0.12.

Question: `O=C1CCN(c2ccccc2)N1` [Phenidone] was tested. Which ED50 [1, 2] did it give?
Answer: The ED50 was 69 mg/kg.

Question: What about the ED50 [1, 3] of the same compound?
Answer: The ED50 was 10 mg/kg.

Question: What about the ED30 (pleural inflammation; read-out: ED30 Cellular Influx) of the same compound?
Answer: Its ED30 is 23 mg/kg.

Question: What about the ED30 (pleural inflammation; read-out: ED30 Fluid Exudation) of the same compound?
Answer: Its ED30 is 21 mg/kg.

Question: What does the source list for `CN1C(C(=O)Nc2ccccn2)=C(O)c2ccccc2S1(=O)=O` [Piroxican]?
Answer: ED30 (pleural inflammation; read-out: ED30 Cellular Influx): 3 mg/kg; ED30 (pleural inflammation; read-out: ED30 Fluid Exudation): 1 mg/kg

Question: For `O=S(=O)(Nc1cccc(OCc2ccc3ccccc3n2)c1)C(F)(F)F` [Wy-48,252, reference compound], which pKB (LTD4) is on record?
Answer: The pKB was 6.90 ± 0.23.

Question: Which inhibition at 10 µM (5-lipoxygenase) does the source give for `COc1ccc2cc([C@H](C)C(=O)O)ccc2c1` [naproxen] here?
Answer: Its inhibition at 10 µM is -94%.

Question: What about the “% Inh LTB4” value ([1]; 4 mg/kg p.o.) of the same compound?
Answer: Its value is 0%.

Question: And the “ED50 TxB2” value ([1]; p.o., 1 hour prior to anti-BSA, 5 min)?
Answer: The value was 0.24 mg/kg.

Question: And the “% Inh Cellular Influx” value (pleural inflammation; 8 mg/kg p.o.)?
Answer: The value was 29%.

Question: And the “ED30 Fluid Exudation” value (pleural inflammation)?
Answer: The value was 3.9 mg/kg.

Question: What about the “% Inhibition of CO (as PGE2)” value (cyclooxygenase) of the same compound?
Answer: Its value is 85%.
